In brackets after ≈: the same amount, converted by molar mass.
Test system: Mycobacterium tuberculosis
Test: Antimycobacterial activity against multidrug resistant Mycobacterium tuberculosis Praha 131 assessed as microbial growth inhibition incubated for 14 days
Assay type: functional
Conditions: Praha 131, 336 h

| Compound | MIC |
| --- | --- |
| Nc1ncnc2c1c(-c1ccccc1)cn2[C@@H]1O[C@H](CO)[C@@H](O)[C@H]1O | 8 µM (≈ 2.74 µg/mL) |
| COc1ccc(-c2cn([C@@H]3O[C@H](CO)[C@@H](O)[C@H]3O)c3ncnc(N)c23)cc1 | 16 µM (≈ 5.96 µg/mL) |
| CSc1ccc(-c2cn([C@@H]3O[C@H](CO)[C@@H](O)[C@H]3O)c3ncnc(N)c23)cc1 | 8 µM (≈ 3.11 µg/mL) |
| Nc1ncnc2c1c(-c1cccc3ccccc13)cn2[C@@H]1O[C@H](CO)[C@@H](O)[C@H]1O | 32 µM (≈ 12.6 µg/mL) |
| Nc1ncnc2c1c(-c1ccc3ccccc3c1)cn2[C@@H]1O[C@H](CO)[C@@H](O)[C@H]1O | 4 µM (≈ 1.57 µg/mL) |
| Nc1ncnc2c1c(-c1ccco1)cn2[C@@H]1O[C@H](CO)[C@@H](O)[C@H]1O | 62.5 µM (≈ 20.8 µg/mL) |
| Nc1ncnc2c1c(-c1cccs1)cn2[C@@H]1O[C@H](CO)[C@@H](O)[C@H]1O | 8 µM (≈ 2.79 µg/mL) |
| Nc1ncnc2c1c(-c1ccoc1)cn2[C@@H]1O[C@H](CO)[C@@H](O)[C@H]1O | 16 µM (≈ 5.32 µg/mL) |
| Nc1ncnc2c1c(-c1ccsc1)cn2[C@@H]1O[C@H](CO)[C@@H](O)[C@H]1O | 8 µM (≈ 2.79 µg/mL) |
| Nc1ncnc2c1c(-c1cc3ccccc3o1)cn2[C@@H]1O[C@H](CO)[C@@H](O)[C@H]1O | 16 µM (≈ 6.12 µg/mL) |
| Nc1ncnc2c1c(-c1ccc[nH]1)cn2[C@@H]1O[C@H](CO)[C@@H](O)[C@H]1O | 62.5 µM (≈ 20.7 µg/mL) |
| Nc1ncnc2c1c(-c1cc[nH]c1)cn2[C@@H]1O[C@H](CO)[C@@H](O)[C@H]1O | 62.5 µM (≈ 20.7 µg/mL) |
| Nc1ncnc2c1c(-c1cn[nH]c1)cn2[C@@H]1O[C@H](CO)[C@@H](O)[C@H]1O | 125 µM (≈ 41.5 µg/mL) |
| Nc1ncnc2c1c(-c1cc[nH]n1)cn2[C@@H]1O[C@H](CO)[C@@H](O)[C@H]1O | > 250 µM |
| C#Cc1cn([C@@H]2O[C@H](CO)[C@@H](O)[C@H]2O)c2ncnc(N)c12 | 8 µM (≈ 2.32 µg/mL) |
| Nc1ncnc2c1c(-c1c[nH]nn1)cn2[C@@H]1O[C@H](CO)[C@@H](O)[C@H]1O | > 250 µM |
| Nc1ncnc2c1c(-c1nccs1)cn2[C@@H]1O[C@H](CO)[C@@H](O)[C@H]1O | 125 µM (≈ 43.7 µg/mL) |
| Nc1ncnc2c1c(-c1c[nH]cn1)cn2[C@@H]1O[C@H](CO)[C@@H](O)[C@H]1O | > 250 µM |

| Compound | MIC |
| --- | --- |
| Nc1ncnc2c1c(-c1ncc[nH]1)cn2[C@@H]1O[C@H](CO)[C@@H](O)[C@H]1O | > 250 µM |
| Cc1ccc(-c2cn([C@@H]3O[C@H](CO)[C@@H](O)[C@H]3O)c3ncnc(N)c23)cc1C | 8 µM (≈ 2.96 µg/mL) |
| CC(C)c1cccc(-c2cn([C@@H]3O[C@H](CO)[C@@H](O)[C@H]3O)c3ncnc(N)c23)c1 | 32 µM (≈ 12.3 µg/mL) |
| CC(C)c1ccc(-c2cn([C@@H]3O[C@H](CO)[C@@H](O)[C@H]3O)c3ncnc(N)c23)cc1 | 16 µM (≈ 6.15 µg/mL) |
| CC(C)(C)c1ccc(-c2cn([C@@H]3O[C@H](CO)[C@@H](O)[C@H]3O)c3ncnc(N)c23)cc1 | 62.5 µM (≈ 24.9 µg/mL) |
| Nc1ncnc2c1c(-c1ccc(C(F)(F)F)cc1)cn2[C@@H]1O[C@H](CO)[C@@H](O)[C@H]1O | 4 µM (≈ 1.64 µg/mL) |
| CC(C)Oc1ccc(-c2cn([C@@H]3O[C@H](CO)[C@@H](O)[C@H]3O)c3ncnc(N)c23)cc1 | 32 µM (≈ 12.8 µg/mL) |
| Nc1ncnc2c1c(-c1ccc3c(c1)OCO3)cn2[C@@H]1O[C@H](CO)[C@@H](O)[C@H]1O | 8 µM (≈ 3.09 µg/mL) |
| COc1cc(-c2cn([C@@H]3O[C@H](CO)[C@@H](O)[C@H]3O)c3ncnc(N)c23)cc(OC)c1OC | 8 µM (≈ 3.46 µg/mL) |
| Nc1ncnc2c1c(-c1ccc3c4c(cccc14)CC3)cn2[C@@H]1O[C@H](CO)[C@@H](O)[C@H]1O | 16 µM (≈ 6.7 µg/mL) |
| Nc1ncnc2c1c(-c1cc3ccccc3c3ccccc13)cn2[C@@H]1O[C@H](CO)[C@@H](O)[C@H]1O | 32 µM (≈ 14.2 µg/mL) |
| Nc1ncnc2c1c(-c1cccc3c1oc1ccccc13)cn2[C@@H]1O[C@H](CO)[C@@H](O)[C@H]1O | 4 µM (≈ 1.73 µg/mL) |
| Nc1ncnc2c1c(-c1cccc3c1Oc1ccccc1S3)cn2[C@@H]1O[C@H](CO)[C@@H](O)[C@H]1O | 16 µM (≈ 7.43 µg/mL) |
| Nc1ncnc2c1c(-c1cccc3c1Sc1ccccc1S3)cn2[C@@H]1O[C@H](CO)[C@@H](O)[C@H]1O | 125 µM (≈ 60.1 µg/mL) |
| Nc1ncnc2c1c(/C=C/c1ccccc1)cn2[C@@H]1O[C@H](CO)[C@@H](O)[C@H]1O | 8 µM (≈ 2.95 µg/mL) |
| Nc1ncnc2c1c(-c1ccc(-c3ccccc3)cc1)cn2[C@@H]1O[C@H](CO)[C@@H](O)[C@H]1O | 4 µM (≈ 1.67 µg/mL) |
| Nc1ncnc2c1c(-c1ccc(-c3ccc4ccccc4c3)cc1)cn2[C@@H]1O[C@H](CO)[C@@H](O)[C@H]1O | 62.5 µM (≈ 29.3 µg/mL) |
| Nc1ncnc2c1c(-c1ccc(COc3cccc4ccccc34)cc1)cn2[C@@H]1O[C@H](CO)[C@@H](O)[C@H]1O | 32 µM (≈ 16 µg/mL) |

From ChEMBL document CHEMBL3352218, “Structural basis for inhibition of mycobacterial and human adenosine kinase by 7-substituted 7-(Het)aryl-7-deazaadenine ribonucleosides” (J Med Chem, 2014)
